US11447482B1, “Imidazopyridine and oxazolopyridine derivatives and analogs thereof, methods of preparation thereof, methods of HIF-2A pathway inhibition, and induction of ferroptosis” (KUDA Therapeutics, Inc., priority 2019, dated 2022)
Values joined by “and” are separate entries in the source; they are usually repeats but may differ in a detail not shown here. Identical values can stand only once. Like-named read-outs stand apart in the source and are kept apart here.

Columns and labels:
[1] = test system: HIF-2α transcriptional activity; assay: Hypoxia-responsive element-driven luciferase (HRE-Luc) assay; assay type: cell-based, human; conditions: 786-0 CCRCC cells stably expressing HRE-Luc, 24 hours treatment
Method: (§1) Screens for inhibitory activity of compounds described herein were performed using 786-0 CCRCC cells that stably express HRE-Luc: 5 copies of the hypoxia-responsive element (HRE) fused to the pGL3 luciferase reporter (Promega Corp, Madison Wis.). 786-0 cells are pVHL deficient and thus constitutively express HIF-2α independently of cellular oxygen tension (Maxwell, Wiesener et al. 1999). Since 786-0 cells lack HIF-1α, HRE-driven luciferase activity is primarily HIF-2α driven, and has been previously validated (Koh, Lemos et al. 2011). Cells were maintained at log phase growth in Dulbecco's […] (DMEM) with 10% FBS in a humidified incubator at 37° C. with 5% CO2. For screening assays, cells were seeded at a density of 4,000 cells in 50 μl of complete media/well in quadruplicate wells/point in a 96-well plate. 24 hours later, 50 μl of a 2× concentration of test compound was added to each well. Compounds were diluted from a 5-10 mM stock in DMSO and final concentrations of DMSO in each well in controls and treated wells were kept constant at ≤0.6% DMSO. After 24 hours' treatment, luciferase activity was measured using the Steady-Glo Luciferase assay system (Promega Corp) according to the manufacturer's protocol. Cell viability was measured in quadruplicate parallel wells using resazurin as recommended by the manufacturer (R&D systems, Minneapolis, Minn.). Data for luciferase and resazurin were normalized to DMSO treated controls (defining 100%) and wells containing assay reagent but no cells (defining 0%), and graphed using the log inhibitor versus normalized response option in Prism7 Graphpad software. Representative data determined using Steady-Glo luciferase and resazurin are shown in FIGS. 1A and 1B respectively, with error bars showing standard error of the mean (SEM).

786-0 CCRCC cells [2] = assay: ICP-MS of cellular iron, zinc and copper; assay type: cell-based, human; conditions: 786-0 cells, 24 hours, 1.5 μM KD002 or KD021, 2.5 μM KD025HCl, versus DMSO
Method: These studies were performed to determine the content of iron and other transition metals in cells after exposure the compounds described herein. 786-0 cells were seeded at 1.5 million cells/flask in T75 cm^2 flasks in DMEM+10% FBS, and allowed to adhere overnight. Cells were then treated with indicated concentrations of compounds in DMSO or DMSO alone (vehicle) for a further 24 hours, after which cells were detached by trypsinization, counted, washed twice in PBS and pelleted. Experiments were performed using three replicate T75 cm^2 flasks per condition. A 5:1 mixture of nitric acid (OPTIMA Grade, 70%, Fisher Scientific) and ultrapure hydrogen peroxide (ULTREX II, 30%, Fisher Scientific) was added to cell pellets. This mixture was allowed to digest overnight, heated until dry, and resuspended in 2% nitric acid for analysis using an Agilent 7900 ICP-MS (Agilent Technologies, Santa Clara, Calif.). Calibration standard solutions for determination of Fe were prepared from Agilent multi-element calibration standard-2A. An Agilent Environmental Calibration Standard was used as an independent control. PBS-only control digestions were used to measure background. Metal readings were normalized to cell number. Data obtained from these studies for three replicate readings (with SEM) are shown in FIG. 4, which show an increase in cellular iron (Fe) content after treatment with indicated compounds.

IRP2 = assay: Western blot of treated 786-0 cells: IRP2; assay type: cell-based, human; conditions: 786-0 CCRCC cells, 24 hours
Method: (§2) Western blots were performed to determine the effects of the compounds on levels of HIF-2α and other relevant proteins. 786-0 (pVHL deficient clear cell kidney cancer cells) were purchased from ATCC were plated at 1×10E5 cells/well in 2 ml DMEM with 10% FBS/well in 6-well tissue culture plates. Cells were allowed to adhere overnight in a humidified incubator at 37° C. with 5% CO2, after which the appropriate concentrations of compounds in DMSO were added. DMSO concentrations were kept constant in all wells. After 24 hour's exposure to the compounds, cells were lysed and subjected to western blotting according to standard protocols (Polek, Talpaz et al. 2003). Antibodies for HIF-2α and Glyceraldehyde 3-Phosphate Dehydrogenase (GAPDH) were purchased from Cell Signaling Technology (Danvers, Mass.), whereas antibodies to iron responsive element binding protein 2 (IRP2) and Glutathione Peroxidase 4 (GPX4) were from Santa Cruz Biotechnology (Dallas, Tex.) and R&D Systems, Inc (Minneapolis, Minn.). Representative data in FIG. 3 show a dose-dependent effect of compounds in decreasing HIF-2α. Compounds also impact cellular iron sensing given by increased IRP2, which taken together indicate that cells sense decreased amounts of available iron. Representative data shown in FIG. 5 Part C show a dose dependent effect of the compounds on GPX4, which may indicate decreased resistance to ferroptosis.

HIF-2α = assay: Western blot of treated 786-0 cells: HIF-2α; assay type: cell-based, human; conditions: 786-0 CCRCC cells, 24 hours
Method: as §2

[3] = test system: CMV-driven luciferase in 786-0 cells; assay: CMV-Luciferase counter-screen (constitutive luciferase); assay type: cell-based, human; conditions: 786-0 CMV versus 786-0 HRE cells, data of FIG. 2
Method: Since it is possible that non-specific inhibitors of luciferase activity and/or translation may produce false-positives in our HRE-luciferase screens, counter-screens were performed using 786-0 cells that stably express a constitutively expressed luciferase construct. 786-0 cells stably expressing CMV-driven luciferase were generated using the pGL4.50 (luc2/CMV/Hygro) vector (Promega Corp) according to the manufacturers' protocol. 786-0 HRE and 786-0 CMV were seeded in 96-well plates and were screened according to the HRE-Luc assay protocol described in Example 2. Luciferase activity following compound treatment was determined using Steady Glo luciferase. Representative data are shown in FIG. 2, wherein A, B and C refer to treatments with KD02, KD007 and KD021 respectively. Filled circles indicate results from 786-0 HRE cells, whereas empty squares indicate results from 786-0 CMV cells.

786-0 CCRCC cells [4] = assay: Resazurin cell viability assay, with or without deferoxamine; assay type: cell-based, human; conditions: 24 hours; for ratio of resazurin IC50 to HRE-Luc IC50: 786-0 HRE-Luc cells, data of FIG. 1; for IC50: 786-0 CCRCC cells, resazurin
Method: as §1
In view of the increased cellular iron concentrations induced by the compounds described herein, the involvement of iron in mediating cell death was determined. Cell viability assays were performed as described in Example 2 using resazurin as a cell viability readout, and performed in the absence or presence of 100 μM of the iron chelator, deferoxamine (D9533, MilliporeSigma, St Louis, Mo.). […] The data support an iron-dependent mechanism of cell death, or feroptosis.

recombinant ISCA2 = biological target: T1, recombinant ISCA2 (Homo sapiens, UniProt Q86U28); assay: Thermal shift assay (SYPRO Orange); assay type: binding
T1 construct: His6 (N); made in house
T1 sequence (Q86U28 9-154): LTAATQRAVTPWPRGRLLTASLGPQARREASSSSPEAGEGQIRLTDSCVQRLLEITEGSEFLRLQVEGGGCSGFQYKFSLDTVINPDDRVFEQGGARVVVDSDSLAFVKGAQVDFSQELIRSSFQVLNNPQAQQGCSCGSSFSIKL
Method: Thermal shift assays were performed by monitoring the change in protein melting temperature (Tm) in the absence or presence of test compounds, using the hydrophobic protein binding dye, SYPRO Orange (S6650, Thermo Fisher Scientific, Waltham, Mass.), measured using the LightCycler 480 (Roche Life Sciences, Indianapolis, Ind.) according to the manufacturer's protocol. Recombinant ISCA2 was produced by expressing amino acid residues 9-154 of ISCA2 (ISCA2 lacking its mitochondrial localization sequence) in the pET28 vector containing an N-terminal His6 tag in Rosetta (DE3) competent cells (Novagen, Millipore Sigma). ISCA2 production was induced by treating ISCA2 transformed log phase cells with 0.25 mM IPTG for 4 hours at 18° C. ISCA2 was purified using Ni^2+ affinity purification according to standard protocols and eluted in 50 mM Tris-Cl pH7.4, 150 mM NaCl, 5 mM DTT. Thermal shift assays were performed in 384-well plates using 1 μl of a 10× concentration of SYPRO Orange, 8 μl of ISCA2 (4 μg protein) and 1 μl of 1-2 mM stock of test compound per well. The LightCycler was used according to the following setup: LightCycler 480 Instrument Temperature Setup: First target of 20° C., with a Hold of 15 seconds; second target of 95° C., with Acquisition Mode of Continuous, and 10 acquisitions per degree C.; and third target of 20° C., with a Hold of 15 seconds. Tms were determined using Roche Protein Melting Analysis Software. Representative data are shown in FIGS. 7 and 8 using KD001 at 200 μM final concentration and KD025 at 100 μM final concentration respectively. Part A in these figures show the changes in fluorescence with increasing temperature in control (grey traces), or treated (black traces) wells. Part B show the ratio of changes in fluorescence (dF) with changes in temperature (dT), given by dF/dT, the peak of which indicates the melting temperature of ISCA2 under these assay conditions. In these examples, for KD001 in FIG. 7, the average Tm readings for control wells was 53.21±0.36° C. (replicate readings were 53.92, 52.83, 52.90), whereas Tm readings for KD001-treated wells were 55.63±0.26° C. (replicate readings were 55.10, 55.92, 55.96). Thus, treatment with KD001 results in a change in melting temperature of ISCA2 (dTm) of 2.41±0.44° C., with a Student's t-test p-value of 0.005. For KD025 in FIG. 8, the average Tm readings for control wells was 55.02±0.2° C. (replicate readings were 55.42, 54.83, 54.81), whereas Tm readings for KD025-treated wells were 56.3±0.02° C. (replicate readings were 56.33, 56.3, 56.27). Thus, treatment with KD025 results in a change in melting temperature of ISCA2 (dTm) of […], with a Student's t-test p-value of 0.003.

| SMILES | IC50 ([1]; Homo sapiens) [µM] | cellular copper (Cu) content (ICP-MS) (786-0 CCRCC cells [2]) | cellular iron (Fe) content (ICP-MS) (786-0 CCRCC cells [2]) | cellular zinc (Zn) content (ICP-MS) (786-0 CCRCC cells [2]) | IRP2 protein relative to GAPDH (western blot) (IRP2) | HIF-2α protein relative to GAPDH (western blot) (HIF-2α) | ratio of CMV-Luc IC50 to HRE-Luc IC50 [3] | ratio of resazurin IC50 to HRE-Luc IC50 (786-0 CCRCC cells [4]) | further results |
| --- | --- | --- | --- | --- | --- | --- | --- | --- | --- |
| COc1nccc2[nH]c(Nc3nnc(-c4ccc(F)cc4)o3)nc12 [KD002, 5-(4-Fluorophenyl)-N-(4-methoxy-1H-imidazo[4,5-c]pyridin-2-yl)-1,3,4-oxadiazol-2-amine] | 1.56 | increases | increases | increases | increases | decreases | 7.9 | 39.05 |  |
| COc1cccc2sc(Nc3nnc(-c4ccc(F)cc4)o3)nc12 [KD001, 5-(4-fluorophenyl)-N-(4-methoxybenzo[d]thiazol-2-yl)-1,3,4-oxadiazol-2-amine] | 3.21 |  |  |  | increases | decreases |  |  | Tm of ISCA2 in treated wells, replicate readings (recombinant ISCA2; 200 μM compound): 55.10 °C and 55.92 °C and 55.96 °C; change in melting temperature of ISCA2 (dTm) (recombinant ISCA2; 200 μM compound, p-value 0.005): 2.41±0.44 °C; ΔTm at 200 µM (recombinant ISCA2; 200 μM compound, p-value 0.005, read-out: change in melting temperature of ISCA2 (dTm)): 2.41 ± 0.44 °C; Tm of ISCA2 in treated wells (average) (recombinant ISCA2; 200 μM compound, control wells 53.21±0.36): 55.63±0.26 °C |
| COc1ccc(-c2nnc(Nc3nc4c(OC)nccc4[nH]3)o2)cc1OC [KD025, N-(4-Methoxy-1H-imidazo[4,5-c]pyridin-2-yl)-5-(3,4-dimethoxyphenyl)-1,3,4-oxadiazol-2-amine] | 1.13 |  |  |  |  |  |  |  | Tm of ISCA2 in treated wells, replicate readings (recombinant ISCA2; 100 μM compound): 56.33 °C and 56.3 °C and 56.27 °C; change in melting temperature of ISCA2 (dTm) (recombinant ISCA2; 100 μM compound, p-value 0.003): 1.21±0.20 °C; ΔTm at 100 µM (recombinant ISCA2; 100 μM compound, p-value 0.003, read-out: change in melting temperature of ISCA2 (dTm)): 1.21 ± 0.2 °C; Tm of ISCA2 in treated wells (average) (recombinant ISCA2; 100 μM compound, control wells 55.02±0.2): 56.3±0.02 °C |
| COc1ccc(-c2nnc(Nc3nc4c(OC)nccc4[nH]3)o2)cc1 [KD021, N-(4-methoxy-1H-imidazo[4,5-c]75yridine-2-yl)-5-(4-methoxyphenyl)-1,3,4-oxadiazol-2-amine] |  | increases | increases | increases |  |  |  | 2.75 | IC50 [1]: 1.4 µM; IC50 (786-0 CCRCC cells [4]; with 100 μM deferoxamine (DFO), read-out: cell viability IC50 in the presence of DFO): 83.6 µM; IC50 (786-0 CCRCC cells [4]; without DFO, read-out: cell viability IC50): 11.4 µM |
| Fc1ccc(-c2nnc(Nc3nc4ncccc4o3)o2)cc1 [KD007, N-(5-(4-Fluorophenyl)-1,3,4-oxadiazol-2-yl)oxazolo[4,5-b]pyridin-2-amine] | 3.16 |  |  |  |  |  | 4.75 and 2.6 | 3.2 |  |
